In patent publication US20220340597A1, “HEXAHYDRO-1H-PYRAZINO[1,2-A]PYRAZINE COMPOUNDS FOR THE TREATMENT OF AUTOIMMUNE DISEASE” (Hoffmann-La Roche Inc., priority 2019, published 2022):

Legend:
human TLR9 = biological target: T1, human TLR9 (Homo sapiens, UniProt Q9NR96); assay: HEK293-Blue-hTLR-9 cells assay; assay type: cell-based; settings: HEK293-Blue-hTLR9 cells, ODN2006 stimulation, 20 hrs, SEAP reporter; read-out: HEK/hTLR9 IC50
T1 construct: host or cells: HEK293 (HEK-Blue hTLR9)
T1 sequence (Q9NR96 26-1032): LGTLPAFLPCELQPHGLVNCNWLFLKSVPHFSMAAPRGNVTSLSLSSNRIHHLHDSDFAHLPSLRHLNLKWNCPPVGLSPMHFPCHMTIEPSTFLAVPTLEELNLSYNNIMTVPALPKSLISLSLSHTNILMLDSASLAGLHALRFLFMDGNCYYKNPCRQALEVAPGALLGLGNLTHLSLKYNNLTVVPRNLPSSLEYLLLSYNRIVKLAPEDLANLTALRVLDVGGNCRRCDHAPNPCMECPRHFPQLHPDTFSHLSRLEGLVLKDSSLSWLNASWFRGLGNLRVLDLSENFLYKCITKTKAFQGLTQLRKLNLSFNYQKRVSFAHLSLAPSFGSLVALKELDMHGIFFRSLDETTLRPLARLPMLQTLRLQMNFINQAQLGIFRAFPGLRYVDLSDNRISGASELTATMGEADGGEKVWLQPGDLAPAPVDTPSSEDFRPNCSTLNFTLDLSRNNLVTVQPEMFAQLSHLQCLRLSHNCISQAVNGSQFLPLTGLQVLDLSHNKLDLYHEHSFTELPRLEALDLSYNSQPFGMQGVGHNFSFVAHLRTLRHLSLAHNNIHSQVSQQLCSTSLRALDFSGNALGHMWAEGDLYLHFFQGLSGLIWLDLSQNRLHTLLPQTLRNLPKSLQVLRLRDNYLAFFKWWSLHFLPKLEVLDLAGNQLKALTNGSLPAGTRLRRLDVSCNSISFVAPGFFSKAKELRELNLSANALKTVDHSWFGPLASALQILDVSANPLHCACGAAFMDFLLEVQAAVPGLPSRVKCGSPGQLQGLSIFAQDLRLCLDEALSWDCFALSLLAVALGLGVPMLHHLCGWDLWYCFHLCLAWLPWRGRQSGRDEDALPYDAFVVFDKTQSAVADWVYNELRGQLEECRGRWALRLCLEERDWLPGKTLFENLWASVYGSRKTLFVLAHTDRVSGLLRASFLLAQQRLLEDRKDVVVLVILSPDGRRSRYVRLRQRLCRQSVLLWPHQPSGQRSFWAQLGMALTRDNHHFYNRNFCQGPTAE

hERG channel = biological target: T2, hERG channel (Homo sapiens, UniProt Q12809); assay: hERG channel inhibition assay (patch-clamp, CHOhERG cells); assay type: cell-based; settings: for IC50 / IC20: CHOhERG cells, whole-cell patch-clamp; for IC20: human, CHO cells stably expressing hERG (CHOhERG); for hERG IC20/TLR7 IC50 / hERG IC20/TLR8 IC50 / hERG IC20/TLR9 IC50: safety ratio
T2 construct: expressed in transfected cells; host or cells: CHO (Chinese hamster ovary), CHOhERG
Method: hERG Channel Inhibition Assay:
The hERG K^+ channels were cloned in humans and stably expressed in a CHO (Chinese hamster ovary) cell line. CHOhERG cells were used for patch-clamp (voltage-clamp, whole-cell) experiments. Cells were stimulated by a voltage pattern to activate hERG channels and conduct IKhERG currents (rapid delayed outward rectifier potassium current of the hERG channel). After the cells were stabilized for a few minutes, the amplitude and kinetics of IKhERG were recorded at a stimulation frequency of 0.1 Hz (6 bpm). Thereafter, the test compound was added to the preparation at increasing concentrations. For each concentration, an attempt was made to reach a steady-state effect, usually, this was achieved within 3-10 min at which time the next highest concentration was applied. The amplitude and kinetics of IKhERG are recorded in each concentration of the drug which were compared to the control values (taken as 100%). (references: Redfern W S, Carlsson L, Davis A S, Lynch W G, MacKenzie I, Palethorpe S, Siegl P K, Strang I, Sullivan A T, Wallis R, Camm A J, Hammond T G. 2003; Relationships between preclinical cardiac electrophysiology, clinical QT interval prolongation and torsade de pointes for a broad range of drugs: evidence for a provisional safety margin in drug development. Cardiovasc. Res. 58:32-45, Sanguinetti M C, Tristani-Firouzi M. 2006; hERG potassium channels and cardiac arrhythmia. Nature 440:463-469, Webster R, Leishman D, Walker D. 2002; Towards a drug concentration effect relationship for QT prolongation and torsades de pointes. Curr. Opin. Drug Discov. Devel. 5:116-26).
The calculation of hERG IC20/TLR7/8/9 IC50 below serves as early selectivity index to assess hERG liability.

T2 sequence (Q12809 whole entry): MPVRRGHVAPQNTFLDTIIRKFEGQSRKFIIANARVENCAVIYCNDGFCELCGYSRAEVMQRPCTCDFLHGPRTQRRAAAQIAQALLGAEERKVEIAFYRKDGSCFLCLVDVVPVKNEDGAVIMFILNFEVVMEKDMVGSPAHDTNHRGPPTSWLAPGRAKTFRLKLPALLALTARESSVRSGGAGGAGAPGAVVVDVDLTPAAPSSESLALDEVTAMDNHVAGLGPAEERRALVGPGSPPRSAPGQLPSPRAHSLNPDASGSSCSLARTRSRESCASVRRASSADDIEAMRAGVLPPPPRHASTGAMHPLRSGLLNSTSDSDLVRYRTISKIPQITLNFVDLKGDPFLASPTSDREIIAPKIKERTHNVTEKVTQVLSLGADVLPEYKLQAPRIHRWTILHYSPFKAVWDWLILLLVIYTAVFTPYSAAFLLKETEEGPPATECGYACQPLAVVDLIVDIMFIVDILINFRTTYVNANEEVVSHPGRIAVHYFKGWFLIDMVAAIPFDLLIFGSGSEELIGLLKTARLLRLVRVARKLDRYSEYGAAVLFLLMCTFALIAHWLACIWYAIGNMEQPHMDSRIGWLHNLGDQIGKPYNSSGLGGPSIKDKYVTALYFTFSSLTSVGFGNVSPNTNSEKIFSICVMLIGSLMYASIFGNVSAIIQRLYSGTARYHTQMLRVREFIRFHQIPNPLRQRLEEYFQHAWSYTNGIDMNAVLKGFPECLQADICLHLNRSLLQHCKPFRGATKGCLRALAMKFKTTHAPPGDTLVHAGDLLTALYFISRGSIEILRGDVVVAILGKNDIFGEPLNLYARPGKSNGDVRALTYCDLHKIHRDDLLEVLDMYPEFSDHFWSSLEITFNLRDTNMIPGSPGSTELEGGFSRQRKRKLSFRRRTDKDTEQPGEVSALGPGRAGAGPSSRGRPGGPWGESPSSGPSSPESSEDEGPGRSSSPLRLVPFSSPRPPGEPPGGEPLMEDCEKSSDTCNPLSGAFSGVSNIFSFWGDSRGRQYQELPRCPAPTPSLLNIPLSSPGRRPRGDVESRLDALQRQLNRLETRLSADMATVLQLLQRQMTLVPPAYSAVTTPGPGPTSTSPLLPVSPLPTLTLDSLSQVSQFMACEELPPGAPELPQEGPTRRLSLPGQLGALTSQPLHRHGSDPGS

Row | Structure (SMILES) | IC50 (human TLR9) [µM] | IC50 (hERG channel) [µM] | IC20 (hERG channel) [µM] | hERG IC20/TLR7 IC50 (hERG channel) | hERG IC20/TLR8 IC50 (hERG channel) | hERG IC20/TLR9 IC50 (hERG channel)
1 | CO[C@@H]1CN(c2nc(C)cc(N3CCN4[C@@H](C3)CN(c3ccc(C#N)c5ncccc35)C[C@H]4C)n2)C[C@H]1N [Example 45, 5-[(4R,9aR)-8-[2-[(3R,4R)-3-amino-4-methoxy-pyrrolidin-1-yl]-6-methyl-pyrimidin-4-yl]-4-methyl-3,4,6,7,9,9a-hexahydro-1H-pyrazino[1,2-a]pyrazin-2-yl]quinoline-8-carbonitrile] | 0.081 | > 20 | > 10 | >556 | >357 | >124
2 | Cc1cc(N2CCN3[C@@H](C2)CN(c2ccc(C#N)c4ncccc24)C[C@H]3C)nc(N2CC(C)(N)C2)n1 [Example 55, 5-[(4R,9aR)-8-[2-(3-amino-3-methyl-azetidin-1-yl)-6-methyl-pyrimidin-4-yl]-4-methyl-3,4,6,7,9,9a-hexahydro-1H-pyrazino[1,2-a]pyrazin-2-yl]quinoline-8-carbonitrile] | 0.048 | > 20 | > 10 | >680 | >249 | >209
3 | C[C@@H]1CN(c2ccc(C#N)n3ncc(F)c23)C[C@@H]2CN(Cc3ccc4c(c3)CNCC4)CCN21 [Example 69, 4-[(4R,9aS)-4-methyl-8-(1,2,3,4-tetrahydroisoquinolin-7-ylmethyl)-3,4,6,7,9,9a-hexahydro-1H-pyrazino[1,2-a]pyrazin-2-yl]-3-fluoro-pyrazolo[1,5-a]pyridine-7-carbonitrile] | 0.142 | > 20 | > 10 | >152 | >192 | >70
4 | [2H]c1ccc2c(N3C[C@@H]4CN(CCc5ccc(N6C[C@H]7NCCO[C@@H]7C6)nc5)CCN4[C@H](C)C3)ccc(C#N)c2n1 [Example 77, 5-[(4R,9aS)-8-[2-[6-[(4aR,7aR)-3,4,4a,5,7,7a-hexahydro-2H-pyrrolo[3,4-b][1,4]oxazin-6-yl]-3-pyridyl]ethyl]-4-methyl-3,4,6,7,9,9a-hexahydro-1H-pyrazino[1,2-a]pyrazin-2-yl]-2-deuterio-quinoline-8-carbonitrile] | 0.044 | > 20 | > 10 | >476 | >416 | >227
5 | [2H]c1ccc2c(N3C[C@@H]4CN(Cc5ccc(N6CC(C)(N)C6)nc5C)CCN4[C@H](C)C3)ccc(C#N)c2n1 [Example 79, 5-[(4R,9aS)-8-[[6-(3-amino-3-methyl-azetidin-1-yl)-2-methyl-3-pyridyl]methyl]-4-methyl-3,4,6,7,9,9a-hexahydro-1H-pyrazino[1,2-a]pyrazin-2-yl]-2-deuterio-quinoline-8-carbonitrile] | 0.046 | > 20 | > 10 | >526 | >1666 | >217
6 | [2H]c1ccc2c(N3C[C@@H]4CN(c5ccc([C@@H]6CNCCO6)cc5)CCN4[C@@H](C)C3)ccc(C#N)c2n1 [Example 106, 5-[(4S,9aS)-4-methyl-8-[4-[(2R)-morpholin-2-yl]phenyl]-3,4,6,7,9,9a-hexahydro-1H-pyrazino[1,2-a]pyrazin-2-yl]-2-deuterio-quinoline-8-carbonitrile] | 0.128 | > 20 | > 10 | >5000 | >2500 | >78
7 | [2H]c1ccc2c(N3C[C@@H]4CN(c5ccc(CCN6C[C@H](OC)[C@@H](N)C6)cn5)CCN4[C@H](C)C3)ccc(C#N)c2n1 [Example 109, 5-[(4R,9aR)-8-[5-[2-[(3S,4S)-3-amino-4-methoxy-pyrrolidin-1-yl]ethyl]-2-pyridyl]-4-methyl-3,4,6,7,9,9a-hexahydro-1H-pyrazino[1,2-a]pyrazin-2-yl]-2-deuterio-quinoline-8-carbonitrile] | 0.111 | > 20 | > 10 | >2000 | >2500 | >90
8 | [2H]c1ccc2c(N3C[C@@H]4CN(c5ncc(N6C[C@@H]7C[C@H]6CN7)cc5C)CCN4[C@@H](C)C3)ccc(C#N)c2n1 [Example 111, 5-[(4S,9aR)-8-[5-[(1S,4S)-2,5-diazabicyclo[2.2.1]heptan-2-yl]-3-methyl-2-pyridyl]-4-methyl-3,4,6,7,9,9a-hexahydro-1H-pyrazino[1,2-a]pyrazin-2-yl]-2-deuterio-quinoline-8-carbonitrile] | 0.119 | > 20 | > 10 | >1666 | >2000 | >84
9 | [2H]c1ccc2c(N3C[C@@H]4CN(c5ccc(N6CC7CCC(C6)N7)nc5)CCN4[C@@H](C)C3)ccc(C#N)c2n1 [Example 112, 5-[(4S,9aR)-8-[6-(3,8-diazabicyclo[3.2.1]octan-3-yl)-3-pyridyl]-4-methyl-3,4,6,7,9,9a-hexahydro-1H-pyrazino[1,2-a]pyrazin-2-yl]-2-deuterio-quinoline-8-carbonitrile] | 0.082 | > 20 | > 10 | >2500 | >1000 | >122
10 | Cc1cc(N2CC3(CN(C)C3)C2)cnc1N1CCN2[C@@H](C1)CN(c1cc(=O)n(C)c3ncccc13)C[C@@H]2C [Example 113, 4-[(4S,9aR)-4-methyl-8-[3-methyl-5-(6-methyl-2,6-diazaspiro[3.3]heptan-2-yl)-2-pyridyl]-3,4,6,7,9,9a-hexahydro-1H-pyrazino[1,2-a]pyrazin-2-yl]-1-methyl-1,8-naphthyridin-2-one] | 0.126 | > 20 | > 10 | >1666 | >70 | >79
11 | [2H]c1ccc2c(N3C[C@@H]4CN(c5ccc(N6C[C@@H](N)[C@H](OC)C6)nc5)CCN4[C@@H](C)C3)ccc(C#N)c2n1 [Example 115, 5-[(4S,9aR)-8-[6-[(3R,4R)-3-amino-4-methoxy-pyrrolidin-1-yl]-3-pyridyl]-4-methyl-3,4,6,7,9,9a-hexahydro-1H-pyrazino[1,2-a]pyrazin-2-yl]-2-deuterio-quinoline-8-carbonitrile] | 0.14 | > 20 | > 10 | >1000 | >588 | >71
12 | [2H]c1ccc2c(N3C[C@@H]4CN(c5ncc(N6CC(C)(N)C6)cc5C)CCN4[C@@H](C)C3)ccc(C#N)c2n1 [Example 118, 5-[(4S,9aR)-8-[5-(3-amino-3-methyl-azetidin-1-yl)-3-methyl-2-pyridyl]-4-methyl-3,4,6,7,9,9a-hexahydro-1H-pyrazino[1,2-a]pyrazin-2-yl]-2-deuterio-quinoline-8-carbonitrile] | 0.148 | > 20 | 7.66 | 1914 | 1276 | 51
